Counter-ions that a name gives are not always drawn.
Assay: in vitro
Conditions: human, hek293t cells

Going from O=C(CCl)NCc1ccccc1CS(=O)(=O)N1CCOCC1 [4-G08, 2-chloro-N-({2-[(morpholine-4-sulfonyl)methyl]phenyl}methyl)acetamide] to O=C(CCl)NC1CCN(Cc2ccccc2)CC1 [5-E19, N-(1-benzylpiperidin-4-yl)-2-chloroacetamide hydrochloride], the viability at 48 h, 25 µM rises from 0.79% to 1.13%.

Compared with Cc1ccc(C=C(C#N)C(=O)Nc2c(Cl)cccc2Cl)o1 [9-N21, 2-cyano-N-(2,6-dichlorophenyl)-3-(5-methylfuran-2-yl)prop-2-enamide], Cc1ccc(NC(=O)C(C#N)=Cc2cccs2)c(C)c1 [8-D15, 2-cyano-N-(2,4-dimethylphenyl)-3-(thiophen-2-yl)prop-2-enamide] is lower in viability at 48 h, 25 µM: 108% for the first, 101% for the second.

First: CC(C)NC(=O)C(C#N)=Cc1ccccc1OC(C)C [9-C15, 2-cyano-N-(propan-2-yl)-3-[2-(propan-2-yloxy)phenyl]prop-2-enamide]
Second: COc1cc(C=C(C#N)C(=O)NC(C)C)cc(Cl)c1O [9-K11, 3-(3-chloro-4-hydroxy-5-methoxyphenyl)-2-cyano-N-(propan-2-yl)prop-2-enamide]
The viability at 48 h, 25 µM of the first is lower: 112% for the first, 115% for the second.

First: CCN(CC)S(=O)(=O)c1ccc(Cl)c(NC(=O)CCl)c1 [5-J12, 2-chloro-N-[2-chloro-5-(diethylsulfamoyl)phenyl]acetamide]
Second: C=CC(=O)NC(C)c1ccc(S(=O)(=O)N(C)C)cc1 (stereo not shown) [3-A20, N-{1-[4-(dimethylsulfamoyl)phenyl]ethyl}prop-2-enamide]
The viability at 48 h, 25 µM of the first is lower: 0.662% for the first, 51.5% for the second.

Compared with C=CC(=O)N1CCC(C(=O)Nc2nnc(CC)s2)CC1 [2-M10, N-(5-ethyl-1,3,4-thiadiazol-2-yl)-1-(prop-2-enoyl)piperidine-4-carboxamide], C=CC(=O)N1CCC[C@H]1C(=O)Nc1cccc(C)n1 [1-B10, (2S)-N-(6-methylpyridin-2-yl)-1-(prop-2-enoyl)pyrrolidine-2-carboxamide] is lower in viability at 48 h, 25 µM: 98.8% for the first, 77.1% for the second.

Compared with Cc1nc([C@H]2CCCN2C(=O)C(C)Cl)cs1 (stereo partly drawn) [7-O04, 2-chloro-1-[(2R)-2-(2-methyl-1,3-thiazol-4-yl)pyrrolidin-1-yl]propan-1-one], CCc1nsc(N2CCCN(C(=O)C(C)Cl)CC2)n1 (stereo not shown) [7-B15, 2-chloro-1-[4-(3-ethyl-1,2,4-thiadiazol-5-yl)-1,4-diazepan-1-yl]propan-1-one] is lower in viability at 48 h, 25 µM: 95.2% for the first, 84.3% for the second.

First: O=C(CCl)c1ccc(F)cc1F [10-I18, 2-chloro-1-(2,4-difluorophenyl)ethan-1-one]
Second: O=C(CCl)c1ccc(O)cc1O [10-C14, 2-chloro-1-(2,4-dihydroxyphenyl)ethan-1-one]
The viability at 48 h, 25 µM of the first is lower: 77.2% for the first, 97.4% for the second.

First: C=CC(=O)N1CCOC(Cn2cncn2)C1 (stereo not shown) [1-F20, 1-{2-[(1H-1,2,4-triazol-1-yl)methyl]morpholin-4-yl}prop-2-en-1-one]
Second: C=CC(=O)N1CCOC(c2cccc(OC)c2)C1 (stereo not shown) [3-E09, 1-[2-(3-methoxyphenyl)morpholin-4-yl]prop-2-en-1-one]
The viability at 48 h, 25 µM of the first is higher: 85.3% for the first, 34.5% for the second.

First: C=CC(=O)N(CC)CC(=O)N1CC[S+]([O-])C(C)(C)CC1 (stereo not shown) [3-K21, N-[2-(7,7-dimethyl-1-oxo-1lambda4,4-thiazepan-4-yl)-2-oxoethyl]-N-ethylprop-2-enamide]
Second: C=CC(=O)NCCN1CCCCC1C (stereo not shown) [2-M09, N-[2-(2-methylpiperidin-1-yl)ethyl]prop-2-enamide]
The viability at 48 h, 25 µM of the first is lower: 40.1% for the first, 182% for the second.

Compared with C=CC(=O)N1CCC(c2noc3cc(F)ccc23)CC1 [3-I07, 1-[4-(6-fluoro-1,2-benzoxazol-3-yl)piperidin-1-yl]prop-2-en-1-one], C=CC(=O)N1CCOCC1CC(=O)c1ccco1 (stereo not shown) [2-M17, 1-{3-[2-(furan-2-yl)-2-oxoethyl]morpholin-4-yl}prop-2-en-1-one] is higher in viability at 48 h, 25 µM: 48.2% for the first, 194% for the second.

First: CC(Cl)C(=O)Nc1ccc(Cl)c(C(F)(F)F)c1 (stereo not shown) [4-C12, 2-chloro-N-[4-chloro-3-(trifluoromethyl)phenyl]propanamide]
Second: CC(Cl)C(=O)NC(=O)Nc1ccccc1 (stereo not shown) [5-I21, 3-(2-chloropropanoyl)-1-phenylurea]
The viability at 48 h, 25 µM of the first is lower: 51% for the first, 92.7% for the second.

Going from C=CC(=O)NC[C@@H]1C[C@H]1C1CCCCC1 [1-O19, N-{[(1R,2S)-2-cyclohexylcyclopropyl]methyl}prop-2-enamide] to C=CC(=O)NCC1CCCC1N1CCCS1(=O)=O (stereo not shown) [3-L13, N-{[2-(1,1-dioxo-1lambda6,2-thiazolidin-2-yl)cyclopentyl]methyl}prop-2-enamide], the viability at 48 h, 25 µM falls from 106% to 78.9%.

Going from C=CC(=O)Nc1ccc(C(C)CC(N)=O)cc1 (stereo not shown) [1-I16, 3-[4-(prop-2-enamido)phenyl]butanamide] to C=CC(=O)Nc1cc(NC(=O)c2cnn(-c3ccccc3)c2)ccc1F [2-G11, N-[4-fluoro-3-(prop-2-enamido)phenyl]-1-phenyl-1H-pyrazole-4-carboxamide], the viability at 48 h, 25 µM falls from 72.6% to 0.749%.

First: Cc1ccc(C(=O)CN(C(=O)CCl)c2ccccc2)cc1 [4-B13, 2-chloro-N-[2-(4-methylphenyl)-2-oxoethyl]-N-phenylacetamide]
Second: O=C(CCl)Nc1ccccc1SCc1ccccc1 [4-J05, N-[2-(benzylsulfanyl)phenyl]-2-chloroacetamide]
The viability at 48 h, 25 µM of the first is lower: 0.038% for the first, 0.437% for the second.

First: O=C(CCl)c1cc(Cl)sc1Cl [10-D16, 2-chloro-1-(2,5-dichlorothiophen-3-yl)ethan-1-one]
Second: Cc1cc(C(=O)CCl)c(C)n1-c1ccc(Cl)c(Cl)c1 [10-D18, 2-chloro-1-[1-(3,4-dichlorophenyl)-2,5-dimethyl-1H-pyrrol-3-yl]ethan-1-one]
The viability at 48 h, 25 µM of the first is higher: 1.77% for the first, 0.282% for the second.

First: Cc1cccc(-n2cc(C(=O)CCl)nn2)c1 [10-L07]
Second: CC(=O)c1cccc(S(=O)(=O)N2CCN(C(=O)CCl)CC2)c1 [4-F05, 1-[4-(3-acetylbenzenesulfonyl)piperazin-1-yl]-2-chloroethan-1-one]
The viability at 48 h, 25 µM of the first is higher: 81.5% for the first, 0.228% for the second.

First: COCCNC(=O)C(C#N)=Cc1cccc2ccccc12 [8-L12, 2-cyano-N-(2-methoxyethyl)-3-(naphthalen-1-yl)prop-2-enamide]
Second: CNC(=O)C(C#N)=Cc1ccc(F)cc1 [9-B14, 2-cyano-3-(4-fluorophenyl)-N-methylprop-2-enamide]
The viability at 48 h, 25 µM of the first is lower: 91.8% for the first, 109% for the second.

First: O=C(CCl)NC1CCCc2c1cnn2Cc1ccccc1 (stereo not shown) [7-F20, N-(1-benzyl-4,5,6,7-tetrahydro-1H-indazol-4-yl)-2-chloroacetamide]
Second: C=CC(=O)Nc1ccccc1-n1nccn1 [3-H10, N-[2-(2H-1,2,3-triazol-2-yl)phenyl]prop-2-enamide]
The viability at 48 h, 25 µM of the first is lower: 0.873% for the first, 73.2% for the second.

Going from CC(Cl)C(=O)NC1CCN(Cc2cscn2)CC1 (stereo not shown) [7-D07, 2-chloro-N-{1-[(1,3-thiazol-4-yl)methyl]piperidin-4-yl}propanamide] to Cc1ccc(C=C(C#N)C(=O)NC2CCCCC2)cc1C [8-G10, 2-cyano-N-cyclohexyl-3-(3,4-dimethylphenyl)prop-2-enamide], the viability at 48 h, 25 µM falls from 111% to 59.4%.

Going from O=C(CCl)NC(C1CC1)C1CC1 [6-C22, 2-chloro-N-(dicyclopropylmethyl)acetamide] to O=C(CCl)N1CCN(C2CCCN(C3CCOCC3)C2=O)CC1 (stereo not shown) [5-E18, 3-[4-(2-chloroacetyl)piperazin-1-yl]-1-(oxan-4-yl)piperidin-2-one], the viability at 48 h, 25 µM falls from 66.4% to 9.07%.
